Reference: paper PMC4690855 (Viruses, 2015)
Values joined by “and” are separate entries in the source; they are usually repeats but may differ in a detail not shown here. Identical values can stand only once. “Also recorded” adds a separate entry of the source. Counter-ions that a name gives are not always drawn. Like-named read-outs stand apart in the source and are kept apart here.

Tests used:
wild-type HIV-2 protease = wild-type HIV-2 protease (Human immunodeficiency virus type 2 subtype A, UniProt P04584); assay: In vitro enzymatic (HPLC) inhibition assay, wild-type protease; format: biochemical
[1] = system: double mutant (I54M, L90M) HIV-2 protease; assay: In vitro enzymatic (HPLC) inhibition assay, double mutant protease; format: biochemical; conditions: for Fold Increase (Ki): Ki double mutant versus wild-type
[2] = target: T1, double mutant (I54M, L90M) HIV-2 protease (Human immunodeficiency virus type 2 subtype A, UniProt P04584, I567M/L603M); assay: as above; format: biochemical
T1 sequence (P04584 514-612 I567M/L603M): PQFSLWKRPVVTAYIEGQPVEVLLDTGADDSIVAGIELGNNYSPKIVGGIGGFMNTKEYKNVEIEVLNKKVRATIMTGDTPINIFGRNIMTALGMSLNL

[3] = system: HIV-2 vectors harboring the double mutation (I54M, L90M); assay: Cell culture inhibition profiling, HIV-2 vector harboring the double mutation; format: cell-based; conditions: for IC50: transfected 293T cells, 3 days, RT activity in medium, triplicate, mean ± SD, read-out: IC50 Double Mutant (I54M, L90M) (cell culture); for Fold Increase (IC50, cell culture): IC50 double mutant versus wild-type; for Effect of I54M-L90M double mutation on IC50 in cell culture, in words: double mutant versus wild-type vector
wild-type HIV-2 vectors = assay: Cell culture inhibition profiling, wild-type HIV-2 vector; format: cell-based; conditions: transfected 293T cells, 3 days, RT activity in medium, triplicate, mean ± SD
[4] = HPLC, oligopeptide substrate, pH 5.6, 37 °C 1 h, triplicate, mean ± SD, read-out: IC50 Wild-Type
[5] = calculated from IC50 by Ki = (IC50 − E/2)/(S/Km + 1), mean ± SD, read-out: Ki Wild-Type
[6] = Human immunodeficiency virus 2, HEK-293T, 72 h

Sequence of wild-type HIV-2 protease (P04584 514-612 limits assumed): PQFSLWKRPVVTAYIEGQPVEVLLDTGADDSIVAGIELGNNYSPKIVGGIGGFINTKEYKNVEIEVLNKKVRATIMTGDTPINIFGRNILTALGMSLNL

Row | SMILES | IC50 (wild-type HIV-2 protease; [4]) | Fold Increase (Ki) [1] | IC50 [2] | Ki (wild-type HIV-2 protease; [5]) | IC50 [3, 6] | Fold Increase (IC50, cell culture) [3] | Effect of I54M-L90M double mutation on IC50 in cell culture, in words [3] | other results
1 | CC(C)(C)NC(=O)[C@@H]1CN(Cc2cccnc2)CCN1C[C@@H](O)C[C@@H](Cc1ccccc1)C(=O)N[C@H]1c2ccccc2C[C@H]1O [Indinavir] | 1.3 ± 0.5 nM | 12 fold | 2.6 ± 1.4 nM |  |  |  |  | 
2 | CC(C)(C)NC(=O)[C@@H]1CN(Cc2cccnc2)CCN1C[C@@H](O)C[C@@H](Cc1ccccc1)C(=O)N[C@H]1c2ccccc2C[C@H]1O [Indinavir sulfate, indinavir sulfate] |  | more than 10 fold |  | 0.03 nM | 16500 ± 2100 nM | 11.7 fold |  | Fold Increase (IC50, cell culture) ([3]; listed as indinavir sulfate): > 10 fold
3 | CC(C)CN(C[C@@H](O)[C@H](Cc1ccccc1)NC(=O)O[C@H]1CCOC1)S(=O)(=O)c1ccc(N)cc1 [Amprenavir] |  |  | 152 ± 9 nM |  | > 100000 nM |  |  | 
4 | CC(C)c1nc(CN(C)C(=O)N[C@H](C(=O)N[C@@H](Cc2ccccc2)C[C@H](O)[C@H](Cc2ccccc2)NC(=O)OCc2cncs2)C(C)C)cs1 [Ritonavir] |  |  |  |  | 14500 ± 300 nM |  |  | 
5 | CCC[C@@]1(CCc2ccccc2)CC(O)=C([C@H](CC)c2cccc(NS(=O)(=O)c3ccc(C(F)(F)F)cn3)c2)C(=O)O1 [Tipranavir] | 50 ± 2 nM | 0.5 fold | 4.8 ± 1.6 nM | 1.3 nM and 1.31 nM | 5800 ± 1700 nM | 1.5 fold | did not have an effect | Effect of I54M, L90M double mutation on inhibitor efficacy (enzymatic), in words ([1]; double mutant versus wild-type protease): remained indifferent to the mutations; also recorded: did not observe a significant increase in Ki
6 | Cc1c(O)cccc1C(=O)N[C@@H](CSc1ccccc1)[C@H](O)CN1C[C@H]2CCCC[C@H]2C[C@H]1C(=O)NC(C)(C)C [Nelfinavir] | 38 ± 10 nM | 26 fold | 190 ± 14.5 nM | 1 nM and 1.01 nM | 5100 ± 1700 nM | 1.8 fold | significant IC50 increase | Fold Increase (Ki) ([1]; listed as nelfinavir): > 20 fold
7 | CC(C)(C)NC(=O)[C@@H]1C[C@@H]2CCCC[C@@H]2CN1C[C@@H](O)[C@H](Cc1ccccc1)NC(=O)[C@H](CC(N)=O)NC(=O)c1ccc2ccccc2n1 [Saquinavir] | 3.42 ± 0.1 nM | 21.4 fold | 14.1 ± 1.7 nM | 0.09 ± 0.001 nM | 3500 ± 1200 nM | 2.7 fold | significant IC50 increase | Fold Increase (Ki) ([1]; listed as saquinavir): > 20 fold
8 | COC(=O)N[C@H](C(=O)N[C@@H](Cc1ccccc1)[C@@H](O)CN(Cc1ccc(-c2ccccn2)cc1)NC(=O)[C@@H](NC(=O)OC)C(C)(C)C)C(C)(C)C.O=S(=O)(O)O [Atazanavir sulfate, atazanavir sulfate] |  | more than 10 fold |  |  |  | 4.8 fold | significant IC50 increase | Ki (wild-type HIV-2 protease; wild-type protease, read-out: Ki Wild-Type (as printed in text in μM)): 0.09 ± 0.03 nM; IC50 (wild-type HIV-2 vectors): 5900 ± 500 nM; IC50 [3]: 28600 ± 350 nM
9 | CC(C)CN(C[C@@H](O)[C@H](Cc1ccccc1)NC(=O)O[C@H]1CO[C@H]2OCC[C@H]21)S(=O)(=O)c1ccc(N)cc1 [Darunavir] |  | 22.2 fold | 8.14 ± 1.3 nM |  | 18700 ± 1600 nM | 44.5 fold |  | IC50 (wild-type HIV-2 protease): 1.76 ± 0.1 nM; Ki (wild-type HIV-2 protease; Ki Wild-Type, calculated from IC50 by Ki = (IC50 − E/2)/(S/Km + 1), mean ± SD): 0.05 ± 0.005 nM; Fold Increase (IC50, cell culture) ([3]; listed as darunavir): > 40 fold; Fold Increase (Ki) ([1]; listed as darunavir): > 20 fold
10 | Cc1cccc(C)c1OCC(=O)N[C@@H](Cc1ccccc1)[C@@H](O)C[C@H](Cc1ccccc1)NC(=O)[C@H](C(C)C)N1CCCNC1=O [Lopinavir] | 1.18 ± 0.1 nM | 10.6 fold | 2.32 ± 0.1 nM | 0.03 ± 0.001 nM | 3100 ± 1100 nM | 20.6 fold |  | Fold Increase (IC50, cell culture) ([3]; listed as lopinavir): > 20 fold; Fold Increase (Ki) ([1]; listed as lopinavir): more than 10 fold
11 | COC(=O)N[C@H](C(=O)N[C@@H](Cc1ccccc1)[C@@H](O)CN(Cc1ccc(-c2ccccn2)cc1)NC(=O)[C@@H](NC(=O)OC)C(C)(C)C)C(C)(C)C [Atazanavir] | 3.34 ± 1 nM | 16.6 fold | 10.9 ± 0.2 nM | 0.09 ± 0.03 nM |  |  |  | 
